According to patent US9695155B2, “Herbicidal substituted pyrimidinyloxy benzene compounds” (E. I. DU PONT DE NEMOURS AND COMPANY, priority 2013, dated 2017):

Tests used:
Italian ryegrass = experiment: Test C preemergence; type: in vivo, Lolium multiflorum; settings: Lolium multiflorum, pre-emergence
Method in brief: (§1)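 Plants were kept under greenhouse conditions for 13–15 days following spray. Pre-emergent application went to soil (loam–sand), post-emergent to foliage at 1–4 leaves. Evaluation: visual, percent control against untreated checks.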

ragweed = experiment: Test C preemergence; type: in vivo, Ambrosia elatior; settings: Ambrosia artemisiifolia, pre-emergence
Method in brief: as §1

blackgrass [1] = experiment: Test C postemergence; type: in vivo, Alopecurus myosuroides; settings: Alopecurus myosuroides, post-emergence
Method in brief: as §1

yellow nutsedge [2] = experiment: Test C postemergence; type: in vivo, Cyperus esculentus; settings: Cyperus, post-emergence
Method in brief: as §1

pigweed [3] = experiment: Test A preemergence; type: in vivo, Amaranthus retroflexus; settings: Amaranthus retroflexus, pre-emergence, 240 h, read-out: Pigweed plant response rating
Method in brief: (§2)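 Compounds in non-phytotoxic solvent with surfactant applied as soil spray preemergence, or postemergence to plants 2-10 cm at one- to two-leaf stage, in loam/sand. After approximately 10 days in greenhouse, injury rated visually versus untreated controls, 0 (no effect) to 100 (complete control).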

giant foxtail = experiment: Test C postemergence; type: in vivo, Setaria faberii; settings: Setaria faberi, post-emergence
Method in brief: as §1

morningglory = experiment: Test C preemergence; type: in vivo, Ipomoea coccinea; settings: Ipomoea, pre-emergence
Method in brief: as §1

pigweed [4] = experiment: Test C preemergence; type: in vivo, Amaranthus retroflexus; settings: Amaranthus retroflexus, pre-emergence
Method in brief: as §1

wild oat = experiment: Test C postemergence; type: in vivo, Avena fatua; settings: Avena fatua, post-emergence
Method in brief: as §1

soybean = experiment: Test C preemergence; type: in vivo, Glycine max; settings: Glycine max, pre-emergence
Method in brief: as §1

yellow nutsedge [5] = experiment: Test C preemergence; type: in vivo, Cyperus esculentus; settings: Cyperus, pre-emergence
Method in brief: as §1

blackgrass [6] = experiment: Test C preemergence; type: in vivo, Alopecurus myosuroides; settings: Alopecurus myosuroides, pre-emergence
Method in brief: as §1

wheat, winter = experiment: Test C postemergence; type: in vivo, Triticum aestivum; settings: Triticum aestivum, post-emergence
Method in brief: as §1

large (Lg) crabgrass = experiment: Test A preemergence; type: in vivo, Digitaria sanguinalis; settings: Digitaria sanguinalis, pre-emergence, 240 h, read-out: Crabgrass, Large plant response rating
Method in brief: as §2

chickweed = experiment: Test C postemergence; type: in vivo, Stellaria media; settings: Stellaria media, post-emergence
Method in brief: as §1

corn = experiment: Test C postemergence; type: in vivo, Zea mays; settings: Zea mays, post-emergence
Method in brief: as §1

[7] = 125 g ai/ha, 0 to 100 scale where 0 is no effect and 100 is complete control
[8] = 500 g ai/ha, 0 to 100 scale, 0 no effect, 100 complete control, approx. 10 days

Clc1cnc(Oc2ccccc2-n2cc(Br)cn2)nc1 [Compound 7, 2-[2-(4-bromo-1H-pyrazol-1-yl)phenoxy]-5-chloropyrimidine]
0%: pest or weed control at 62 g/ha (Italian ryegrass; 62 g ai/ha, preemergence, scale 0 (no effect) to 100 (complete control), read-out: Ryegrass, Italian plant response rating) | pest or weed control at 31 g/ha (Italian ryegrass; Preemergence, 31 g ai/ha, scale 0 to 100, 0 no effect, 100 complete control, read-out: Plant response rating, Ryegrass, Italian) | pest or weed control at 62 g/ha (ragweed; 62 g ai/ha, preemergence, scale 0 (no effect) to 100 (complete control), read-out: Ragweed plant response rating) | pest or weed control at 31 g/ha (ragweed; Preemergence, 31 g ai/ha, scale 0 to 100, 0 no effect, 100 complete control, read-out: Plant response rating, Ragweed) | pest or weed control at 31 g/ha (giant foxtail; Postemergence, 31 g ai/ha, scale 0 to 100 (0 no effect, 100 complete control), 13 to 15 days, read-out: Plant response rating, Foxtail, Giant) | pest or weed control at 62 g/ha (morningglory; 62 g ai/ha, preemergence, scale 0 (no effect) to 100 (complete control), read-out: Morningglory plant response rating) | pest or weed control at 31 g/ha (morningglory; Preemergence, 31 g ai/ha, scale 0 to 100, 0 no effect, 100 complete control, read-out: Plant response rating, Morningglory) | pest or weed control at 62 g/ha (yellow nutsedge [5]; 62 g ai/ha, preemergence, scale 0 (no effect) to 100 (complete control), read-out: Nutsedge, Yellow plant response rating) | pest or weed control at 31 g/ha (yellow nutsedge [5]; Preemergence, 31 g ai/ha, scale 0 to 100, 0 no effect, 100 complete control, read-out: Plant response rating, Nutsedge, Yellow)
5%: pest or weed control at 125 g/ha (Italian ryegrass; 125 g ai/ha, preemergence, scale 0 (no effect) to 100 (complete control), read-out: Ryegrass, Italian plant response rating) | pest or weed control at 125 g/ha (ragweed; 125 g ai/ha, preemergence, scale 0 (no effect) to 100 (complete control), read-out: Ragweed plant response rating) | pest or weed control at 31 g/ha (blackgrass [1]; Postemergence, 31 g ai/ha, scale 0 to 100 (0 no effect, 100 complete control), 13 to 15 days, read-out: Plant response rating, Blackgrass) | pest or weed control at 62 g/ha (giant foxtail; Postemergence, 62 g ai/ha, scale 0 to 100 (0 no effect, 100 complete control), read-out: Plant response rating, Foxtail, Giant) | pest or weed control at 31 g/ha (wild oat; Postemergence, 31 g ai/ha, scale 0 to 100 (0 no effect, 100 complete control), 13 to 15 days, read-out: Plant response rating, Oat, Wild) | pest or weed control at 31 g/ha (blackgrass [6]; Preemergence, 31 g ai/ha, scale 0 to 100, 0 no effect, 100 complete control, read-out: Plant response rating, Blackgrass) | plant injury at 31 g/ha (wheat, winter; Postemergence, 31 g ai/ha, scale 0 to 100 (0 no effect, 100 complete control), 13 to 15 days, read-out: Plant response rating, Wheat) | plant injury at 62 g/ha (wheat, winter; Postemergence, 62 g ai/ha, scale 0 to 100 (0 no effect, 100 complete control), read-out: Plant response rating, Wheat)
60%: plant injury at 125 g/ha (soybean; 125 g ai/ha, preemergence, scale 0 (no effect) to 100 (complete control), read-out: Soybean plant response rating) | plant injury at 125 g/ha (corn; 125 g ai/ha, postemergence, read-out: Plant response rating (0 to 100), Corn)
45%: pest or weed control at 125 g/ha (blackgrass [1]; 125 g ai/ha, postemergence, read-out: Plant response rating (0 to 100), Blackgrass)
35%: pest or weed control at 125 g/ha (wild oat; 125 g ai/ha, postemergence, read-out: Plant response rating (0 to 100), Oat, Wild) | pest or weed control at 62 g/ha (wild oat; Postemergence, 62 g ai/ha, scale 0 to 100 (0 no effect, 100 complete control), read-out: Plant response rating, Oat, Wild)
15%: pest or weed control at 125 g/ha (yellow nutsedge [2]; 125 g ai/ha, postemergence, read-out: Plant response rating (0 to 100), Nutsedge, Yellow) | pest or weed control at 62 g/ha (yellow nutsedge [2]; Postemergence, 62 g ai/ha, scale 0 to 100 (0 no effect, 100 complete control), read-out: Plant response rating, Nutsedge, Yellow) | plant injury at 31 g/ha (soybean; Preemergence, 31 g ai/ha, scale 0 to 100, 0 no effect, 100 complete control, read-out: Plant response rating, Soybean) | pest or weed control at 125 g/ha (yellow nutsedge [5]; 125 g ai/ha, preemergence, scale 0 (no effect) to 100 (complete control), read-out: Nutsedge, Yellow plant response rating) | pest or weed control at 250 g/ha (yellow nutsedge [5]; 250 g ai/ha, preemergence, scale 0 (no effect) to 100 (complete control), read-out: Nutsedge, Yellow plant response rating) | plant injury at 250 g/ha (wheat, winter; 250 g ai/ha, postemergence, read-out: Plant response rating (0 to 100), Wheat)
100%: pest or weed control at 500 g/ha (pigweed [3]; [8]) | pest or weed control at 62 g/ha (pigweed [4]; 62 g ai/ha, preemergence, scale 0 (no effect) to 100 (complete control), read-out: Pigweed plant response rating) | pest or weed control at 125 g/ha (pigweed [4]; 125 g ai/ha, preemergence, scale 0 (no effect) to 100 (complete control), read-out: Pigweed plant response rating) | pest or weed control at 250 g/ha (pigweed [4]; 250 g ai/ha, preemergence, scale 0 (no effect) to 100 (complete control), read-out: Pigweed plant response rating) | pest or weed control at 31 g/ha (pigweed [4]; Preemergence, 31 g ai/ha, scale 0 to 100, 0 no effect, 100 complete control, read-out: Plant response rating, Pigweed) | pest or weed control at 125 g/ha (large (Lg) crabgrass; [7]) | pest or weed control at 500 g/ha (large (Lg) crabgrass; [8])
55%: pest or weed control at 250 g/ha (wild oat; 250 g ai/ha, postemergence, read-out: Plant response rating (0 to 100), Oat, Wild)
75%: plant injury at 250 g/ha (corn; 250 g ai/ha, postemergence, read-out: Plant response rating (0 to 100), Corn)
25%: Corn plant response rating (crop injury, 0 = no effect, 100 = complete kill) at 62 g/ha (corn; Postemergence, 62 g ai/ha, scale 0 to 100 (0 no effect, 100 complete control))
10%: pest or weed control at 62 g/ha (blackgrass [1]; Postemergence, 62 g ai/ha, scale 0 to 100 (0 no effect, 100 complete control), read-out: Plant response rating, Blackgrass) | pest or weed control at 31 g/ha (yellow nutsedge [2]; Postemergence, 31 g ai/ha, scale 0 to 100 (0 no effect, 100 complete control), 13 to 15 days, read-out: Plant response rating, Nutsedge, Yellow) | pest or weed control at 125 g/ha (giant foxtail; 125 g ai/ha, postemergence, read-out: Plant response rating (0 to 100), Foxtail, Giant) | pest or weed control at 250 g/ha (giant foxtail; 250 g ai/ha, postemergence, read-out: Plant response rating (0 to 100), Foxtail, Giant) | pest or weed control at 125 g/ha (morningglory; 125 g ai/ha, preemergence, scale 0 (no effect) to 100 (complete control), read-out: Morningglory plant response rating) | pest or weed control at 62 g/ha (blackgrass [6]; 62 g ai/ha, preemergence, scale 0 (no effect) to 100 (complete control), read-out: Blackgrass plant response rating) | plant injury at 125 g/ha (wheat, winter; 125 g ai/ha, postemergence, read-out: Plant response rating (0 to 100), Wheat)
98%: plant injury at 250 g/ha (soybean; 250 g ai/ha, preemergence, scale 0 (no effect) to 100 (complete control), read-out: Soybean plant response rating) | pest or weed control at 250 g/ha (chickweed; 250 g ai/ha, postemergence, read-out: Plant response rating (0 to 100), Chickweed)
40%: pest or weed control at 250 g/ha (Italian ryegrass; 250 g ai/ha, preemergence, scale 0 (no effect) to 100 (complete control), read-out: Ryegrass, Italian plant response rating) | pest or weed control at 250 g/ha (ragweed; 250 g ai/ha, preemergence, scale 0 (no effect) to 100 (complete control), read-out: Ragweed plant response rating) | pest or weed control at 250 g/ha (morningglory; 250 g ai/ha, preemergence, scale 0 (no effect) to 100 (complete control), read-out: Morningglory plant response rating) | plant injury at 62 g/ha (soybean; 62 g ai/ha, preemergence, scale 0 (no effect) to 100 (complete control), read-out: Soybean plant response rating)
85%: pest or weed control at 250 g/ha (blackgrass [6]; 250 g ai/ha, preemergence, scale 0 (no effect) to 100 (complete control), read-out: Blackgrass plant response rating)
90%: pest or weed control at 125 g/ha (pigweed [3]; [7]) | pest or weed control at 125 g/ha (chickweed; 125 g ai/ha, postemergence, read-out: Plant response rating (0 to 100), Chickweed)
80%: pest or weed control at 31 g/ha (chickweed; Postemergence, 31 g ai/ha, scale 0 to 100 (0 no effect, 100 complete control), 13 to 15 days, read-out: Plant response rating, Chickweed)
20%: pest or weed control at 250 g/ha (yellow nutsedge [2]; 250 g ai/ha, postemergence, read-out: Plant response rating (0 to 100), Nutsedge, Yellow)
50%: pest or weed control at 250 g/ha (blackgrass [1]; 250 g ai/ha, postemergence, read-out: Plant response rating (0 to 100), Blackgrass) | pest or weed control at 125 g/ha (blackgrass [6]; 125 g ai/ha, preemergence, scale 0 (no effect) to 100 (complete control), read-out: Blackgrass plant response rating)
